Measured values: US6630502B2, “Method for preventing, stabilizing or causing regression of atherosclerosis employing a combination of a cholesterol lowering drug and an ace inhibitor” (E.R. Squibb & Sons, Inc., priority 1990, dated 2003)
Marks after values point to notes of the source that are not given here.

Key:
[1] = Body weight, mean arterial pressure and heart rate of cholesterol-fed hamsters treated for 8 weeks; assay type: in vivo, hamster; details: at 8 weeks
Experimental: (§1) Male F1 hamsters were fed 0.3% cholesterol and 10% coconut oil.
(§2) Four sets of hamsters were established (n=12-13 per group). The groups were controls, pravastatin (34 mg/kg/day), captopril (100 mg/kg/day) and pravastatin plus captopril (32 and 100 mg/kg/day, respectively). All animals were fed the same atherogenic diet. Pravastatin was delivered via the diet and captopril was gavaged daily. Hamsters in the control and pravastatin groups were gavaged with water. The animals were treated for 8 weeks. At 3 and 6 weeks the animals were fasted overnight and bled to determine plasma cholesterols and triglycerides. At 8 weeks, mean arterial pressure and heart rate were measured and then the animals were fixed by perfusing formalin. The aortic arch was stained with oil red O and the total area of the fatty streak (which consists of macrophage-foam cells) was measured by computer assisted image analysis.

[2] = Plasma lipids of cholesterol-fed hamsters (control and treated); assay type: in vivo, hamster; details: mean ± SD, at 5 weeks, pravastatin 34 mg/kg/day, captopril 100 mg/kg/day, combination 33 + 100 mg/kg/day
Experimental: as §1
as §2, with “The groups were controls, pravastatin (34 mg/kg/day), captopril (100 mg/kg/day) and pravastatin plus captopril (32 and 100 mg/kg/day, respectively).” left out, “At 3 and 6 weeks the animals were fasted overnight and bled to determine plasma cholesterols and triglycerides.” left out

[3] = system: fatty streak (macrophage-foam cells) of the aortic arch; test: Fatty streak area in the aortic arch (oil red O, image analysis) of cholesterol-fed hamsters; assay type: in vivo, hamster; details: 8 weeks; for Fatty Streak Area: mean ± SD, 6 arches per group, pravastatin 34 mg/kg/day, captopril 100 mg/kg/day, combination 33 + 100 mg/kg/day
Experimental: as §1
as §2, with “The groups were controls, pravastatin (34 mg/kg/day), captopril (100 mg/kg/day) and pravastatin plus captopril (32 and 100 mg/kg/day, respectively).” left out

[4] = Body weight, mean arterial pressure and heart rate of cholesterol-fed hamsters treated for 8 weeks; assay type: in vivo, hamster; details: mean ± SD, combination 33 + 100 mg/kg/day; for HR (Heart Rate) / MAP (Mean Arterial Pressure): at 8 weeks, pravastatin 34 mg/kg/day, captopril 100 mg/kg/day; for Body Weight: hamsters on atherogenic diet, 8 weeks, pravastatin 34 mg/kg/day (diet), captopril 100 mg/kg/day (gavage)
[5] = hypercholesterolemic patients; cited from earlier work

| Compound | heart rate less than control hamsters ([1]; compared with control hamsters) [%] | mean arterial pressure lower than controls ([1]; compared with control hamsters) [%] | HDL-C [2] | TC [2] | TG [2] | VLDL + LDL-C [2] | reduction of fatty streak (lesion) area compared to control group [3] | Fatty Streak Area [3] | HR (Heart Rate) [4] | MAP (Mean Arterial Pressure) [4] | Body Weight [4] [g] | change of serum cholesterol [5] [%] | increase of HDL [5] [%] | effect on blood pressure ([1]; 34 mg/kg/day) | effect on heart rate ([1]; 34 mg/kg/day) |
| --- | --- | --- | --- | --- | --- | --- | --- | --- | --- | --- | --- | --- | --- | --- | --- |
| C[C@H](CS)C(=O)N1CCC[C@H]1C(=O)O [Captopril, 1-[(2S)-3-mercapto-2-methylpropionyl]-L-proline] | 7 | 21 | 72 ± 23 mg/dL | 660 ± 94 mg/dL | 1105 ± 259 mg/dL | 588 ± 83 mg/dL | approximately 50% | 245 ± 154^c μm^2 × 10^3 | 348 ± 22^a beats/min. | 110 ± 17^a mmHg | 133 ± 12 | −18 | 27 |  |  |
| CC[C@H](C)C(=O)O[C@H]1C[C@H](O)C=C2C=C[C@H](C)[C@H](CC[C@@H](O)C[C@@H](O)CC(=O)O)[C@H]21 [Pravastatin, pravastatin] |  |  | 117 ± 7^a mg/dl | 456 ± 107^a mg/dl | 185 ± 34^a mg/dl | 339 ± 93^a mg/dl | approximately 50% | 248 ± 119^b μm^2 × 10^3 | 355 ± 27 beats/min. | 138 ± 13 mmHg | 139 ± 8 |  |  | no effect | no effect |
